We go through 27 compounds from patent US11440900B2, “Agricultural chemicals” (GLOBACHEM NV, priority 2018, dated 2022).

Where only a bound is given, the exact number is not on record here.

Usually EC50 stands for the midpoint of the concentration-response curve.

What all share (format): cell-based
One assay concerns Zymoseptoria tritici. Briefly: Fungicidal activity screen in amended agar, 96 well plates, Zymoseptoria tritici. The conditions noted are these: 168 h, fungal growth vs DMSO control, 1% potato dextrose agar, 10,000 spores/ml, 20, 2, 0.2 and 0.02 ppm, 18° C., assessed after 7 days, read-out: Zymoseptoria EC50 ranking. The protocol:
(§1) Compounds were screened in 96 well plates with 10 compounds per plate. Each compound was screened using agar amended to 20, 2, 0.2 and 0.02 ppm of the test material. Proline at 50 and 10 ppm and 0.2% DMSO were used respectively as positive and negative controls. Each test concentration and standard were tested twice on a plate.
(§2) Compounds were screened against the following three fungal pathogens—Botrytis cinerea, Alternaria alternata and Zymoseptoria tritici. The agar used in the test varied depending on the pathogen with Medium N used for B. cinerea and A. alternata and 1% potato dextrose agar for Z. tritici. For each pathogen sufficient spores were added to the appropriate agar to give 1,000 spores/ml agar of A. alternata, 5,000 spores/ml agar of B. cinerea and 10,000 spores/ml agar of Z. tritici.
(§3) A ×10 stock solution in 2% DMSO was produced for each dose i.e. 200, 20, 2 and 0.2 ppm, and 10 μl of this added to the appropriate wells on the plate. An equivalent amount of 2% DMSO and Proline stock at 500 and 100 ppm were added for the controls. To each well 90 μl of the appropriate agar spore suspension was added to give the final well concentrations outlined in the first paragraph.
(§4) Plates were incubated at room temperature (18° C.) and assessed after • a) 3 to 4 days A. alternata and B. cinerea • b) 7 days for Z. tritici
(§5) The amount of fungal growth in each well was compared to the DMSO controls and scored according to the following key • 0—no growth (100% control) • 1—growth reduced by 75% compared to DMSO control (25% growth) • 2—growth reduced by 50% compared to DMSO control (50% growth) • 3—growth reduced by 25% compared to DMSO control growth (75% growth) • 4—no reduction in growth compared to DMSO control growth (100% growth)
(§6) Those numbers were then used to give an EC50. The ranking in the table is: • A) EC50<20 ppm, B) EC50≥20ppm

A further assay concerns Alternaria alternata. Briefly: Fungicidal activity screen in amended agar, 96 well plates, Alternaria alternata. The conditions noted are these: fungal growth vs DMSO control, Medium N agar, 1,000 spores/ml, 20, 2, 0.2 and 0.02 ppm, 18° C., assessed after 3 to 4 days, read-out: Alternaria EC50 ranking. The protocol:
as §1, §2, §3, §4, §5, §6

The test system of another assay is Botrytis cinerea. The assay can be described thus: Fungicidal activity screen in amended agar, 96 well plates, Botrytis cinerea. The conditions noted are these: fungal growth vs DMSO control, Medium N agar, 5,000 spores/ml, 20, 2, 0.2 and 0.02 ppm, 18° C., assessed after 3 to 4 days, read-out: Botrytis EC50 ranking. The method, then: as §1, §2, §3, §4, §5, §6

Regarding `Cc1cccc(-n2cnc3cc(Cl)ccc32)c1-c1ccc(F)cc1Cl` [Example 9], the EC50 with Zymoseptoria tritici, in the assay on Alternaria alternata and in the assay on Botrytis cinerea was less than 20 µg/mL in each case.
Consider `COc1cc(F)c(-c2c(C)ncnc2-n2cnc3cc(Cl)cc(F)c32)c(F)c1` [Example 19], for which the EC50 in the assay on Zymoseptoria tritici, in the assay on Alternaria alternata and in the assay with Botrytis cinerea was less than 20 µg/mL in each case.
In the case of `COc1ccc(-c2c(-n3cnc4cc(Br)cc(F)c43)ccnc2Cl)c(Cl)c1` [Example 18], the 50% effective concentration (EC50) in the assay with Zymoseptoria tritici, with Alternaria alternata and in the assay with Botrytis cinerea was less than 20 µg/mL throughout.
Regarding `COc1ccc(-c2c(-n3cnc4cc(Cl)cc(F)c43)ccnc2Cl)c(Cl)c1` [Example 13], the EC50 in the assay with Zymoseptoria tritici, in the assay on Alternaria alternata and in the assay with Botrytis cinerea was less than 20 µg/mL each time.
In the case of `COc1ccc(-c2c(-n3nnc4cc(Br)cc(F)c43)ccnc2Cl)c(Cl)c1` [Example 26], the figures for the EC50 in the assay on Zymoseptoria tritici, with Alternaria alternata and in the assay on Botrytis cinerea were not below 20 µg/mL, not below 20 µg/mL and less than 20 µg/mL, respectively.
For `Cc1ncnc(-n2cnc3cc(F)cc(F)c32)c1-c1ccc(F)cc1Cl` [Example 1, 1-(5-(2-Chloro-4-fluorophenyl)-6-methylpyrimidin-4-yl)-5,7-difluoro-1H-benzo[d]imidazole], the EC50 in the assay on Zymoseptoria tritici, in the assay with Alternaria alternata and with Botrytis cinerea was less than 20 µg/mL each time.
`Cc1cccc(-n2cnc3ccccc32)c1-c1ccc(F)cc1Cl` [Example 8]: the half-maximal effective concentration (EC50) with Zymoseptoria tritici, in the assay on Alternaria alternata and in the assay with Botrytis cinerea was less than 20 µg/mL each time.
Consider `COc1ccc(-c2c(-n3nnc4cc(Cl)cc(F)c43)ccnc2Cl)c(Cl)c1` [Example 20, 5-Chloro-1-(2-chloro-3-(2-chloro-4-methoxyphenyl)pyridin-4-yl)-7-fluoro-1H-benzo[d][1,2,3]triazole], for which the EC50 with Zymoseptoria tritici, in the assay on Alternaria alternata and with Botrytis cinerea was less than 20 µg/mL in each case.
Consider `Cc1ncnc(-n2nnc3cc(Cl)cc(F)c32)c1-c1ccc(F)cc1Cl` [Example 21], for which the figures for the EC50 in the assay on Zymoseptoria tritici, with Alternaria alternata and in the assay with Botrytis cinerea were less than 20 µg/mL, not below 20 µg/mL and less than 20 µg/mL, respectively.
In the case of `COc1ccc(-c2c(C)ncnc2-n2cnc3cc(F)cc(F)c32)c(Cl)c1` [Example 2], the EC50 with Zymoseptoria tritici, in the assay on Alternaria alternata and in the assay with Botrytis cinerea was less than 20 µg/mL in each case.
As for `COc1ccc(-c2c(C)ncnc2-n2cnc3cc(Cl)cc(F)c32)c(Cl)c1` [Example 11], the EC50 in the assay with Zymoseptoria tritici, with Alternaria alternata and with Botrytis cinerea was less than 20 µg/mL throughout.
With `Cc1ncnc(-n2cnc3cc(Cl)cc(F)c32)c1-c1ccc(F)cc1Cl` [Example 12], the EC50 with Zymoseptoria tritici, in the assay on Alternaria alternata and with Botrytis cinerea was less than 20 µg/mL in each case.
As for `Fc1ccc(-c2c(-n3cnc4cc(Cl)cc(F)c43)ccnc2Cl)c(Cl)c1` [Example 14], the EC50 in the assay with Zymoseptoria tritici, in the assay on Alternaria alternata and in the assay on Botrytis cinerea was less than 20 µg/mL in each case.
Regarding `Fc1ccc(-c2c(-n3cnc4cc(F)cc(F)c43)ccnc2Cl)c(Cl)c1` [Example 5], the EC50 in the assay with Zymoseptoria tritici, in the assay on Alternaria alternata and in the assay with Botrytis cinerea was less than 20 µg/mL in each case.
For the compound `C#CCOc1ccc2c(c1)ncn2-c1nccc(C)c1-c1ccc(F)cc1Cl` [Example 17], the EC50 with Zymoseptoria tritici, in the assay on Alternaria alternata and in the assay with Botrytis cinerea was less than 20 µg/mL in each case.
For the compound `C#CCOc1ccc2c(c1)ncn2-c1ccnc(Cl)c1-c1ccc(F)cc1Cl` [Example 15], the EC50 in the assay on Zymoseptoria tritici, with Alternaria alternata and in the assay with Botrytis cinerea was less than 20 µg/mL each time.
For the compound `COc1ccc(-c2c(C)ncnc2-n2nnc3cc(Cl)cc(F)c32)c(Cl)c1` [Example 22], the EC50 in the assay with Zymoseptoria tritici was less than 20 µg/mL; with Alternaria alternata it was not below 20 µg/mL; in the assay on Botrytis cinerea, less than 20 µg/mL.
As to `Cc1ccnc(-n2cnc3cc(F)cc(F)c32)c1-c1ccc(F)cc1Cl` [Example 4], the EC50 with Zymoseptoria tritici, in the assay with Alternaria alternata and in the assay on Botrytis cinerea was less than 20 µg/mL in each case.
As to `Fc1ccc(-c2c(-n3nnc4cc(Cl)cc(F)c43)ccnc2Cl)c(Cl)c1` [Example 25], the EC50 in the assay on Zymoseptoria tritici, in the assay on Alternaria alternata and with Botrytis cinerea was less than 20 µg/mL each time.
Turning to `Cc1ccnc(-n2nnc3cc(Cl)cc(F)c32)c1-c1ccc(F)cc1Cl` [Example 23], the EC50 in the assay on Zymoseptoria tritici, in the assay on Alternaria alternata and in the assay on Botrytis cinerea was less than 20 µg/mL throughout.
As for `Cc1ccc2c(c1)ncn2-c1cccc(C)c1-c1ccc(F)cc1Cl` [Example 10], the EC50 in the assay on Zymoseptoria tritici, in the assay on Alternaria alternata and in the assay with Botrytis cinerea was less than 20 µg/mL each time.
Consider `COc1cc(F)c(-c2c(C)cccc2-n2cnc3cc(F)cc(F)c32)c(F)c1` [Example 7], for which the concentration for a half-maximal effect (EC50) in the assay on Zymoseptoria tritici, with Alternaria alternata and in the assay on Botrytis cinerea was less than 20 µg/mL each time.
With `Cc1cccc(-n2cnc3cc(F)cc(F)c32)c1-c1ccc(F)cc1Cl` [Example 6], the EC50 with Zymoseptoria tritici, in the assay on Alternaria alternata and in the assay with Botrytis cinerea was less than 20 µg/mL throughout.
In the case of `COc1ccc(-c2c(C)ccnc2-n2nnc3cc(Cl)cc(F)c32)c(Cl)c1` [Example 24], the values for the EC50 with Zymoseptoria tritici, with Alternaria alternata and in the assay on Botrytis cinerea were less than 20 µg/mL, not below 20 µg/mL and less than 20 µg/mL, respectively.
Take `Cc1ccnc(-n2cnc3cc(Cl)cc(F)c32)c1-c1ccc(F)cc1Cl` [Example 16]: the EC50 in the assay on Zymoseptoria tritici, in the assay with Alternaria alternata and in the assay on Botrytis cinerea was less than 20 µg/mL throughout.
In the case of `Cc1ncnc(-n2cnc3cc(F)cc(F)c32)c1-c1ccccc1Cl` [Example 3], the EC50 with Zymoseptoria tritici, in the assay on Alternaria alternata and in the assay with Botrytis cinerea was less than 20 µg/mL each time.
As to `Fc1ccc(-c2c(-n3cnc4cc(F)ccc43)cnnc2Cl)c(Cl)c1` [Example 27], the figures for the EC50 with Zymoseptoria tritici, in the assay on Alternaria alternata and in the assay with Botrytis cinerea were less than 20 µg/mL, not below 20 µg/mL and less than 20 µg/mL, respectively.
